How the values were obtained:
Purinergic P2Y1 = Purinergic P2Y1 (Homo sapiens, UniProt P47900); test: GPCR counterscreen binding assay
Experimental: (§1) SCH 546738 was tested at concentrations of 1-10 μM against a panel of 49 GPCR binding assays. Most of the assays were not affected by SCH 546738 (Table 2). […] In addition, SCH 546738 has a favourable pharmacokinetic profile in rodents. […] Therefore, SCH 546738 is suitable for in vivo preclinical studies.

CXCR1 = CXCR1 (Homo sapiens, UniProt P25024); test: GPCR counterscreen binding assay
Experimental: as §1

Adrenergic α2A = Adrenergic α2A (Homo sapiens, UniProt P08913); test: GPCR counterscreen binding assay
Experimental: as §1

Adrenergic α2B = Adrenergic α2B (Homo sapiens, UniProt P18089); test: GPCR counterscreen binding assay
Experimental: as §1

Neuropeptide Y (Y1) = Neuropeptide Y (Y1) (Homo sapiens, UniProt P25929); test: GPCR counterscreen binding assay
Experimental: as §1

VR1N = test: GPCR counterscreen binding assay; details: @ 4 μM
Experimental: as §1

MRGX1 = MRGX1 (Homo sapiens, UniProt Q96LB2); test: GPCR counterscreen binding assay
Experimental: as §1

Muscarinic M3 = Muscarinic M3 (Homo sapiens, UniProt P20309); test: GPCR counterscreen binding assay
Experimental: as §1

Mu opiate = Mu opiate (Homo sapiens, UniProt P35372); test: GPCR counterscreen binding assay
Experimental: as §1

Prokineticin PKR1 = Prokineticin PKR1 (Homo sapiens, UniProt Q8TCW9); test: GPCR counterscreen binding assay
Experimental: as §1

Muscarinic M4 = Muscarinic M4 (Homo sapiens, UniProt P08173); test: GPCR counterscreen binding assay
Experimental: as §1

CCR3 = CCR3 (Homo sapiens, UniProt P51677); test: GPCR counterscreen binding assay
Experimental: as §1

Muscarinic M2 = Muscarinic M2 (Homo sapiens, UniProt P08172); test: GPCR counterscreen binding assay
Experimental: as §1

CXCR2 = CXCR2 (Homo sapiens, UniProt P25025); test: GPCR counterscreen binding assay
Experimental: as §1

Neuropeptide Y (Y2) = Neuropeptide Y (Y2) (Homo sapiens, UniProt P49146); test: GPCR counterscreen binding assay
Experimental: as §1

Neurokinin NK1 = Neurokinin NK1 (Homo sapiens, UniProt P25103); test: GPCR counterscreen binding assay
Experimental: as §1

Vasopressin (V1a) = Vasopressin (V1a) (Homo sapiens, UniProt P37288); test: GPCR counterscreen binding assay
Experimental: as §1

Vasopressin (V1b) = Vasopressin (V1b) (Homo sapiens, UniProt P47901); test: GPCR counterscreen binding assay
Experimental: as §1

Adenosine A2A = Adenosine A2A (Homo sapiens, UniProt P29274); test: GPCR counterscreen binding assay
Experimental: as §1

Muscarinic M5 = Muscarinic M5 (Homo sapiens, UniProt P08912); test: GPCR counterscreen binding assay
Experimental: as §1

Vasopressin (V2) = Vasopressin (V2) (Homo sapiens, UniProt P30518); test: GPCR counterscreen binding assay
Experimental: as §1

Serotonergic 5HT1A = Serotonergic 5HT1A (Homo sapiens, UniProt P08908); test: GPCR counterscreen binding assay
Experimental: as §1

Neurokinin NK3 = Neurokinin NK3 (Homo sapiens, UniProt P29371); test: GPCR counterscreen binding assay
Experimental: as §1

Adrenergic α2C = Adrenergic α2C (Homo sapiens, UniProt P18825); test: GPCR counterscreen binding assay
Experimental: as §1

Neuropeptide Y (Y5) = Neuropeptide Y (Y5) (Homo sapiens, UniProt Q15761); test: GPCR counterscreen binding assay
Experimental: as §1

Dopamine D1 = Dopamine D1 (Homo sapiens, UniProt P21728); test: GPCR counterscreen binding assay
Experimental: as §1

Delta opiate = Delta opiate (Homo sapiens, UniProt P41143); test: GPCR counterscreen binding assay
Experimental: as §1

Dopamine D4.2 = Dopamine D4.2 (Homo sapiens, UniProt P21917, DEL265-296); test: GPCR counterscreen binding assay
Experimental: as §1

Dopamine D3 = Dopamine D3 (Homo sapiens, UniProt P35462); test: GPCR counterscreen binding assay
Experimental: as §1

Adrenergic α1A = Adrenergic α1A (Homo sapiens, UniProt P35348); test: GPCR counterscreen binding assay
Experimental: as §1

MRGX2 = MRGX2 (Homo sapiens, UniProt Q96LB1); test: GPCR counterscreen binding assay
Experimental: as §1

Neurokinin NK2 = Neurokinin NK2 (Homo sapiens, UniProt P21452); test: GPCR counterscreen binding assay
Experimental: as §1

MCHR1 = MCHR1 (Homo sapiens, UniProt Q99705); test: GPCR counterscreen binding assay
Experimental: as §1

CCR5 = CCR5 (Homo sapiens, UniProt P51681); test: GPCR counterscreen binding assay
Experimental: as §1

Neuropeptide Y (Y4) = Neuropeptide Y (Y4) (Homo sapiens, UniProt P50391); test: GPCR counterscreen binding assay
Experimental: as §1

Muscarinic M1 = Muscarinic M1 (Homo sapiens, UniProt P11229); test: GPCR counterscreen binding assay
Experimental: as §1

Histamine H3 = Histamine H3 (Homo sapiens, UniProt Q9Y5N1); test: GPCR counterscreen binding assay
Experimental: as §1

Adrenergic α1B = Adrenergic α1B (Homo sapiens, UniProt P35368); test: GPCR counterscreen binding assay
Experimental: as §1

Nociceptin NOP1 = Nociceptin NOP1 (Homo sapiens, UniProt P41146); test: GPCR counterscreen binding assay
Experimental: as §1

CCR7 = CCR7 (Homo sapiens, UniProt P32248); test: GPCR counterscreen binding assay
Experimental: as §1

Histamine H1 = Histamine H1 (Homo sapiens, UniProt P35367); test: GPCR counterscreen binding assay
Experimental: as §1

CCR1 = CCR1 (Homo sapiens, UniProt P32246); test: GPCR counterscreen binding assay
Experimental: as §1

C57BL/6 mice = test: mouse experimental autoimmune encephalomyelitis (MOG35-55); format: in vivo
Experimental: Female C57BL/6 mice were purchased from Jackson Laboratory (Bar Harbor, ME). For immunization, 150 μg MOG35-55 peptide prepared by Princeton Biomolecules (Langhorne, PA, USA) and 300 μg killed Mycobacterium tuberculosis (Difco, Detroit, MI) were mixed in CFA (Sigma-Aldrich, St Louis, MO, USA) and injected s.c. in two 50-μl injections over the flanks on day 1. Also, 200 ng of pertussis toxin (Sigma-Aldrich, St Louis, MO) was injected i.v. on days 0 and 2. The compound was administered orally twice daily. Dosing with the compound started at day 0, 24 h prior to MOG35-55 immunization (day 1). Mice were monitored daily and assessed for clinical signs of disease in a blinded fashion according to the following criteria: 0, no signs of disease; 1, tail paralysis; 2, limp tail and hind limb weakness; 3, hind limb paralysis; 4, hind limb plus forelimb paralysis; and 5, moribund or dead. Cumulative clinical scores were calculated by adding daily scores from the day of immunization until the end of the experiment. Mean clinical scores at separate days and mean maximal scores were calculated by adding the scores of individual mice and dividing with the number of mice in each group, including mice not developing signs of EAE. […]

Chain of Neurokinin NK2 (P21452 whole entry): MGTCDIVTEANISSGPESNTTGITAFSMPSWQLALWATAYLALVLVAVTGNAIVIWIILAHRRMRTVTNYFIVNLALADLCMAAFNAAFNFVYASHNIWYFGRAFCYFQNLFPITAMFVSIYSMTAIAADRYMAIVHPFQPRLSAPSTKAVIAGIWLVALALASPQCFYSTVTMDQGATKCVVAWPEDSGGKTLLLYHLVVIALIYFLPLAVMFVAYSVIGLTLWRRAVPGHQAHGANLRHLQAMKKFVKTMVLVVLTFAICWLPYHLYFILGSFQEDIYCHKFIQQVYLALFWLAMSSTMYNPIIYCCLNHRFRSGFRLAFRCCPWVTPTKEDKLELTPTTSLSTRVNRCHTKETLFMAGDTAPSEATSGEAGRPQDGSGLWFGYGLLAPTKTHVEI
Chain of Muscarinic M5 (P08912 whole entry): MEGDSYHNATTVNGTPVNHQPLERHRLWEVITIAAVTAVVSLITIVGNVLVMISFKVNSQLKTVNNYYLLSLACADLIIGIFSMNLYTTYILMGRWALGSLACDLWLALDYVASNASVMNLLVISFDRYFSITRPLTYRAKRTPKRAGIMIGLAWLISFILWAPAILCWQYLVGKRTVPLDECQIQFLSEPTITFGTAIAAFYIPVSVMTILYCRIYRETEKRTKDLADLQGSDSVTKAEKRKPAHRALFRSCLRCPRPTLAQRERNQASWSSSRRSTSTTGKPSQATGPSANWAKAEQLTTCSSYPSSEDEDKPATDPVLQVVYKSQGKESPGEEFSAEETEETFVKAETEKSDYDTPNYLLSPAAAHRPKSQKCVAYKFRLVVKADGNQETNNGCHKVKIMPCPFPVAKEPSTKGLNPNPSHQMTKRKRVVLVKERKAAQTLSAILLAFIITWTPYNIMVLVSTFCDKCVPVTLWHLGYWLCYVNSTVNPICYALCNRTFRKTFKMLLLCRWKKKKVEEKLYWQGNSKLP
Chain of Neuropeptide Y (Y2) (P49146 whole entry): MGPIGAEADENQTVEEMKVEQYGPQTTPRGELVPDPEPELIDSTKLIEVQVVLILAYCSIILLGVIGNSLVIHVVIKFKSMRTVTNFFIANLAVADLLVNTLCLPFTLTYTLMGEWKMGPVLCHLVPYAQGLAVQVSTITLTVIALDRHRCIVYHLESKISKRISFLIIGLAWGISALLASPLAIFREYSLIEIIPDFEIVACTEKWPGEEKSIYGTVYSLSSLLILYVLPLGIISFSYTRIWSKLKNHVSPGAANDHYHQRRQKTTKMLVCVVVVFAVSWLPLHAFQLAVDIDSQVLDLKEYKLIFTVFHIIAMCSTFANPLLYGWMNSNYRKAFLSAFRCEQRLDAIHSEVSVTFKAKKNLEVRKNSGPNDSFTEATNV
Chain of CCR5 (P51681 whole entry): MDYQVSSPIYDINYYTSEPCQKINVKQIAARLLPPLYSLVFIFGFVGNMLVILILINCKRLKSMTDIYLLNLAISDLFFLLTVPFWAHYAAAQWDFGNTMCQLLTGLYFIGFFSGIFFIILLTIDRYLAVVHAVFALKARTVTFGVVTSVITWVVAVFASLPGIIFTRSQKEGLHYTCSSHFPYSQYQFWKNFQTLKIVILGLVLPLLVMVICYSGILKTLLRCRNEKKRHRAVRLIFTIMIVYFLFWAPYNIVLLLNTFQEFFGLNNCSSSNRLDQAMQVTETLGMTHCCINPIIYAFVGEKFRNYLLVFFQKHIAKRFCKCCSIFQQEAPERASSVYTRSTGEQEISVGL
Chain of Neuropeptide Y (Y1) (P25929 whole entry): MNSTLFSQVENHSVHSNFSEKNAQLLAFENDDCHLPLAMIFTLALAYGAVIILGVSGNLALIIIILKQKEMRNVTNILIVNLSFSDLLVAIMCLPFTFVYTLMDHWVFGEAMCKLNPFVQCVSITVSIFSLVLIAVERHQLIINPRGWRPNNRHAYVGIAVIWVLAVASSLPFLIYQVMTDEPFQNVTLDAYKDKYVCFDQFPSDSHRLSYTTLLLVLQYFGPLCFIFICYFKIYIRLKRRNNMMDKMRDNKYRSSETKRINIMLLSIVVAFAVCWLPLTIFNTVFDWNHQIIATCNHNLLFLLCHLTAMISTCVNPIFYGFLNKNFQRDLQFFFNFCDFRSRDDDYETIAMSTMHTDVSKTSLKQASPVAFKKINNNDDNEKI
Chain of Neurokinin NK3 (P29371 whole entry): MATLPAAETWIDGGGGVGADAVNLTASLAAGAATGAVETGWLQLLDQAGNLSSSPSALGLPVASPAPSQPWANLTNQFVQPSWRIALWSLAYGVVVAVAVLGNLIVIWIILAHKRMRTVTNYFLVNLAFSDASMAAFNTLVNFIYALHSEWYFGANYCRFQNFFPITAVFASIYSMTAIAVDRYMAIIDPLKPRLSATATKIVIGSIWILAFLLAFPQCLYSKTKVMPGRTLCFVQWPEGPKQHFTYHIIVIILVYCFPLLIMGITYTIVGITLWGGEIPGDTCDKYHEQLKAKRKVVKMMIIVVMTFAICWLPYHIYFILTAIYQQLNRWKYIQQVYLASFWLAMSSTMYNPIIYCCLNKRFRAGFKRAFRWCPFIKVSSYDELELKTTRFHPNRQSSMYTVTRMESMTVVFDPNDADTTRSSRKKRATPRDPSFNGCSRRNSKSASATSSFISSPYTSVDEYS
Chain of Muscarinic M1 (P11229 whole entry): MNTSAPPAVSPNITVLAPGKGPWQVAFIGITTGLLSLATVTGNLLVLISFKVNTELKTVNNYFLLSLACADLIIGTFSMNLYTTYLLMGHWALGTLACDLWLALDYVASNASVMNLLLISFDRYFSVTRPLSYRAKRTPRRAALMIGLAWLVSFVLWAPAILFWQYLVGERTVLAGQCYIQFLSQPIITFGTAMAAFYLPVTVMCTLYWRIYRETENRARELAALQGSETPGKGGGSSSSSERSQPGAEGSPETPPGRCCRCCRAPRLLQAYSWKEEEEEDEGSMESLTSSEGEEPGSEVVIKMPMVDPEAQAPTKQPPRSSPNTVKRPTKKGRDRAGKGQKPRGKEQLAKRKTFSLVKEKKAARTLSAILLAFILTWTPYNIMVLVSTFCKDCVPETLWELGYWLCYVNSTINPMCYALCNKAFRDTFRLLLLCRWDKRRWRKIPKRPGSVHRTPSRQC
Chain of Vasopressin (V1b) (P47901 whole entry): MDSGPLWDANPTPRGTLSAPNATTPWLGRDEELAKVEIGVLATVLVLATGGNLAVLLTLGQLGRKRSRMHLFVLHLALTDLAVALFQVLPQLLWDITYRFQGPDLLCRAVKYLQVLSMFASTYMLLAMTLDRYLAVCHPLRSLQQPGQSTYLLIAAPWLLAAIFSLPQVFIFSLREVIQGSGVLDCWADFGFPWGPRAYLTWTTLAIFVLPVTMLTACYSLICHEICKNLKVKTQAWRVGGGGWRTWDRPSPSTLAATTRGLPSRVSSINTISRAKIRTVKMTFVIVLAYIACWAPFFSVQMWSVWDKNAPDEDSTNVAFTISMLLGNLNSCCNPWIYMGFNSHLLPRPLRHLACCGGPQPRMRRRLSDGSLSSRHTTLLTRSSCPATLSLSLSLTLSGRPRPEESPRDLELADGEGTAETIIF
Chain of Adrenergic α1A (P35348 whole entry): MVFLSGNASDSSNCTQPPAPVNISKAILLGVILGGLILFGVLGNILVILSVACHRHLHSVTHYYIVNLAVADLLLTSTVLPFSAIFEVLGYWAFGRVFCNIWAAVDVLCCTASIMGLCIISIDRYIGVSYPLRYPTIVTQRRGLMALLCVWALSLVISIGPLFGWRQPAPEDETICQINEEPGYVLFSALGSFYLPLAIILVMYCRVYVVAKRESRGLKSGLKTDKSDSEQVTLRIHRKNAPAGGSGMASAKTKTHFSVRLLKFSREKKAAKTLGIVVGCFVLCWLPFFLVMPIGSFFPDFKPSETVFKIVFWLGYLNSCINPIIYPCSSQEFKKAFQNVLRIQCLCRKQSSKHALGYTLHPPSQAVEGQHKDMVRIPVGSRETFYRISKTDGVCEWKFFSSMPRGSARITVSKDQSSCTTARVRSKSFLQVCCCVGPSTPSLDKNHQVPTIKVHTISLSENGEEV
Chain of CCR7 (P32248 25-378): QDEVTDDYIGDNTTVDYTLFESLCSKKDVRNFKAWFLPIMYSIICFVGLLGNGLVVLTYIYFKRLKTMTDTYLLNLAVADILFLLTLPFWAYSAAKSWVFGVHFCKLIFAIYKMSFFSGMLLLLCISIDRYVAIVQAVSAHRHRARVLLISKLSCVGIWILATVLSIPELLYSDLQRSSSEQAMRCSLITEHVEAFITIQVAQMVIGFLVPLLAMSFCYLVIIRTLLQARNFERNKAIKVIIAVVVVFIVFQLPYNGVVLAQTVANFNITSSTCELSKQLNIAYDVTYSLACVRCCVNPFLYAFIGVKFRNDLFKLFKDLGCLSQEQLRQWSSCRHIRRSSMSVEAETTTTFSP
Chain of Histamine H3 (Q9Y5N1 whole entry): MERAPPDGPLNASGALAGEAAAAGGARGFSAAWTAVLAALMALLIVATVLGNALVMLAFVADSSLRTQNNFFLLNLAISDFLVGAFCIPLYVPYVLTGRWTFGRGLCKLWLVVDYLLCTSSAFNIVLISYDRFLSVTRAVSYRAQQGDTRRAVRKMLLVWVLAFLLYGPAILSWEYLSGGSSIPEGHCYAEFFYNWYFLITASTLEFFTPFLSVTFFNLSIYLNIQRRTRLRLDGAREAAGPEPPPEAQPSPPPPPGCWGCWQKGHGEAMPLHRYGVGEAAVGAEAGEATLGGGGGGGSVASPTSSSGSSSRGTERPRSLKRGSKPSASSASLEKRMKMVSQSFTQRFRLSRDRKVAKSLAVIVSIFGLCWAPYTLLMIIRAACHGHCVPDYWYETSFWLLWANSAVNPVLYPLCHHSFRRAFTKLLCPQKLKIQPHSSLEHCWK

SMILES: CC[C@H]1CN(c2nc(N)c(C(N)=O)nc2Cl)CCN1C1CCN(Cc2ccc(Cl)cc2)CC1 [SCH 546738]
- inhibition at 4 µM (Purinergic P2Y1): 16%
- inhibition at 10 µM (CXCR1): 13%
- inhibition at 1 µM (Adrenergic α2A): 45%
- inhibition at 2 µM (Adrenergic α2B): -2%
- inhibition at 4 µM (Neuropeptide Y (Y1)): 4%
- Inhibition (%) (VR1N): 0% @ 4 μM
- inhibition at 4 µM (MRGX1): 1%
- inhibition at 4 µM (Muscarinic M3): 27%
- inhibition at 4 µM (Mu opiate): 22%
- inhibition at 4 µM (Prokineticin PKR1): -1%
- inhibition at 4 µM (Muscarinic M4): 30%
- inhibition at 10 µM (CCR3): 17%
- inhibition at 4 µM (Muscarinic M2): 52%
- inhibition at 10 µM (CXCR2): 20%
- inhibition at 4 µM (Neuropeptide Y (Y2)): -9%
- inhibition at 2 µM (Neurokinin NK1): 15%
- inhibition at 4 µM (Vasopressin (V1a)): 7%
- inhibition at 4 µM (Vasopressin (V1b)): 15%
- inhibition at 4 µM (Adenosine A2A): 3%
- inhibition at 4 µM (Muscarinic M5): 28%
- inhibition at 4 µM (Vasopressin (V2)): 18%
- inhibition at 4 µM (Serotonergic 5HT1A): 20%
- inhibition at 2 µM (Neurokinin NK3): 0%
- inhibition at 1 µM (Adrenergic α2C): 76%
- inhibition at 4 µM (Neuropeptide Y (Y5)): 12%
- inhibition at 4 µM (Dopamine D1): 6%
- inhibition at 4 µM (Delta opiate): 12%
- inhibition at 10 µM (Dopamine D4.2): 18%
- inhibition at 10 µM (Dopamine D3): 18%
- inhibition at 2 µM (Adrenergic α1A): 11%
- inhibition at 4 µM (MRGX2): 25%
- inhibition at 2 µM (Neurokinin NK2): 0%
- inhibition at 10 µM (MCHR1): 0%
- inhibition at 10 µM (CCR5): 10%
- inhibition at 4 µM (Neuropeptide Y (Y4)): -2%
- inhibition at 4 µM (Muscarinic M1): 22%
- inhibition at 2 µM (Histamine H3): 29%
- inhibition at 2 µM (Adrenergic α1B): 25%
- inhibition at 4 µM (Nociceptin NOP1): -21%
- inhibition at 10 µM (CCR7): 0%
- inhibition at 2 µM (Histamine H1): 46%
- inhibition at 10 µM (CCR1): 9%
- effect on disease onset and severity (C57BL/6 mice; 30 mpk orally twice daily, alone, days 17 and 19): delayed disease onset and attenuated disease severity
- effect on disease onset and severity, combination treatment (C57BL/6 mice; SCH 546738 30 mpk p.o. twice daily combined with IFN-β 1700 ng i.m. daily, compared to either alone): significant additive effect
